Measured values taken from patent publication US7951382B2, “Methods for treatment of type 2 diabetes” (American Type Culture Collection, priority 2006, dated 2011).
Entries after “also recorded” stand apart in the source; their conditions may differ.

How the values were obtained:
[1] = system: STZ-induced diabetic C57BL/6 mice; assay: Multiple low dose streptozotocin (STZ)-induced murine model of Diabetes, efficacy of D3 peptide; assay type: in vivo, male C57BL/6 mice; settings: for mortality / survival during the course of the study: experiment 1, to day 36, FIG. 15
Description: Peptide treatment also delayed the onset of Diabetes (mean blood glucose levels≧300 mg/dL) by approximately 14 days, and reduced peak BG levels by 40% (p<0.01) in treated animals. This naturally occurring peptide may represent a safer alternative to small molecule kinase inhibitors for the control of IDDM and associated complications.
Streptozotocin (Streptozocin, STZ, Zanosar) is a naturally occurring glucosamine-nitrosourea compound that is toxic to insulin producing beta cells in the pancreas. This alkylating agent bears enough similarity to the molecular structure of glucose to be readily transported into beta cells by the highly abundant glucose GLU2 glucose transporter protein. Once inside the cell STZ causes damage to the DNA, resulting in a loss of cellular function.
Twenty five male C57BL/6 mice aged approximately 6 weeks were randomized into 3 groups of 10, 10 and 5 animals. Beginning on day −6, non-fasting blood glucose (BG) levels for all animals were determined twice weekly using an Ascencia Contour blood glucose reader (Beyer). […] Groups 1 and 3 were intraperitoneally administered 200 μl sterile water alone. Injections continued in a similar fashion every 3 days for the duration of the experiment. Beginning on day 0, Groups 2 and 3 also received 50 mg/kg of STZ in 200 μl of sterile water via the intraperitoneal route for 5 consecutive days. Group 1 animals received a mock intraperitoneal injection of 200 μl of sterile water during the same period (see Table 17). Animals were allowed access to food and water ad libitum and this treatment schedule was followed until day 36.
In experiment 1, animals were fed normal mouse chow for the duration of the experiment and a fresh vial of STZ was used. Blood glucose measurements for each individual animal were recorded twice weekly for the duration of the experiment. The blood glucose levels in the non diabetic control animals remained stable at approximately 150 mg/dl. However, immediately following the administration of STZ to the two experimental groups, blood glucose levels increased steadily over time and reached a maximum at approximately day 15. No difference in blood glucose levels were observed between D3 treated and untreated STZ-induced animals.
For the duration of the experiment, the mean blood glucose level of normal control animals was approximately 150 mg/dl. For the purposes of this study, a blood glucose reading in STZ-induced animals more than 2-fold higher than normal (i.e. ≧300 mg/dl) was considered to indicate a diabetic animal. Using this criterion, the incidence and time to onset of diabetes in the treated and untreated STZ groups was determined. […] For both STZ groups, the onset of Diabetes began as early as day 4 post STZ administration. All of the untreated STZ animals were classed as diabetic by day 10.
In experiment 2, animals were fed a high carbohydrate diet (˜50% sucrose) for the duration of the experiment. An older stock vial of STZ was used. Blood glucose measurements for each individual animal were recorded twice weekly for the duration of the experiment. As expected, the blood glucose levels in the non diabetic control animals remained below 150 mg/dl. […] This trend was maintained for the entire duration of the experiment.
For the duration of the experiment, the mean blood glucose level of normal control animals was approximately 150 mg/dl. For the purposes of this study, a blood glucose reading in STZ-induced animals more than 2-fold higher than normal (i.e. ≧300 mg/dl) was considered to indicate a diabetic animal. Using this criterion, the incidence and time to onset of Diabetes in the treated and untreated STZ groups was determined. […] For the untreated STZ group, Diabetes onset began as early as day 8 post STZ administration, and 100% of animals were diabetic by day 18. […] By day 36 only 70% of animals in the D3 treated group were classified as diabetic. […]

[2] = system: 12 Kinases (kinases involved in insulin receptor signaling pathways); assay: NovaScreen ProfilerPro kinase panel / screen of 59 receptors and enzymes at 1 μM; assay type: biochemical; settings: D3 peptide 1 μM, preliminary results
Description: (§1) Kinase assays were performed using the ProfilerPro kinase panel kit available from NovaScreen and were validated using the KinaseProfiler enzyme panel available from Millipore.

[3] = system: 12 Kinases (kinases involved in insulin receptor signaling pathways); assay: Millipore KinaseProfiler enzyme panel; assay type: biochemical; settings: D3 peptide 0.1 uM and 1 uM, same 12 kinases
Description: as §1

kinases = kinases (Homo sapiens, UniProt P15056, V600E); assay: Invitrogen SelectScreen biochemical kinase profiling, Z'-LYTE assay; settings: kinase BRAF V599E
Chain of kinases (P15056 whole entry V600E): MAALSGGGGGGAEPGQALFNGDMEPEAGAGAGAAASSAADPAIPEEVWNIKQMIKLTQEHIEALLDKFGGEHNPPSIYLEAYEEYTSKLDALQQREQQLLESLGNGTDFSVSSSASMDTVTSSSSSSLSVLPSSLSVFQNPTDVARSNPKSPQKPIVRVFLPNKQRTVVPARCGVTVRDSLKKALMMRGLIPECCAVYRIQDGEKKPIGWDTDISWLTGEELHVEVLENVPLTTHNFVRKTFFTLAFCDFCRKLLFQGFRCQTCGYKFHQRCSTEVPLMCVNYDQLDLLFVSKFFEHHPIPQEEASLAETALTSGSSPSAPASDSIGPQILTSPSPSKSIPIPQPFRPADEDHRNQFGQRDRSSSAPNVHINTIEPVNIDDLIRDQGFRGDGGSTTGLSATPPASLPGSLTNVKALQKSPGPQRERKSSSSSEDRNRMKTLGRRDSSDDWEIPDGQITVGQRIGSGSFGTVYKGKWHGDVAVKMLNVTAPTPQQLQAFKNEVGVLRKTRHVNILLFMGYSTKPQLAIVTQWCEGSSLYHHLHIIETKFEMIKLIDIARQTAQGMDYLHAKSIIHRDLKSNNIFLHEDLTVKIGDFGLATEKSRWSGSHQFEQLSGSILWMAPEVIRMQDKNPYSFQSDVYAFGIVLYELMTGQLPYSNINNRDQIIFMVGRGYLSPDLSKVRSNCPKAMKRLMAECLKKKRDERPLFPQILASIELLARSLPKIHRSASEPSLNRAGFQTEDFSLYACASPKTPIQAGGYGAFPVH
Text: The Z′-LYTE® biochemical assay employs a fluorescence-based, coupled-enzyme format and is based on the differential sensitivity of phosphorylated and non-phosphorylated peptides to proteolytic cleavage. The peptide substrate is labeled with two fluorophores—one at each end—that make up a FRET pair. In the primary reaction, the kinase transfers the gamma-phosphate of ATP to a single tyrosine, serine or threonine residue in a synthetic FRET-peptide. In the secondary reaction, a site-specific protease recognizes and cleaves non-phosphorylated FRET-peptides. Phosphorylation of FRET-peptides suppresses cleavage by the Development Reagent. Cleavage disrupts FRET between the donor (i.e., coumarin) and acceptor (i.e., fluorescein) fluorophores on the FRET-peptide, whereas uncleaved, phosphorylated FRET-peptides maintain FRET.
Both cleaved and uncleaved FRET-peptides contribute to the fluorescence signals and therefore to the Emission Ratio. The extent of phosphorylation of the FRET-peptide can be calculated from the Emission Ratio.
Test Compounds are screened in 1% DMSO (final) in the well. […] All ATP Solutions are diluted to a 4× working concentration in Kinase Buffer (50 mM HEPES pH 7.5, 0.01% BRIJ-35, 10 mM MgCl2, 1 mM EGTA). ATP Km apparent is previously determined using a Z′-LYTE® assay.
This control yields 100% cleaved peptide in the Development Reaction. […]

[4] = experiment 1, normal mouse chow, fresh vial of STZ
[5] = experiment 2, high carbohydrate diet

Q: How did the “reduction of peak BG levels” value ([1]; 36-day prophylactic study, STZ-induced male C57BL/6 mice, 1 mg/kg every 3 days, p<0.01) turn out when “SGRPPMIVWFNRPFLIAVSHTHGQTILFMAKVINPVGA [D3 peptide, SGRPPMIVWFNRPFLIAVSHTHGQTILFMAKVINPVGA]” was run?
A: The value was 40%.

Q: What about the “delay of the onset of Diabetes (mean blood glucose levels≧300 mg/dL)” value ([1]; 36-day prophylactic study, STZ-induced male C57BL/6 mice, 1 mg/kg of D3 peptide every 3 days) of the same sequence?
A: The value was “approximately 14 days”.

Q: What about the “time to onset or rate of disease compared to untreated diabetic controls” value ([1]; FIG. 14, STZ treated animals (experiment 1)) of the same sequence?
A: Its value is “No significant differences”.

Q: And the “blood glucose levels, D3 treated versus untreated STZ-induced animals” value [1, 4]?
A: The value was “No difference”.

Q: What about the “first signs of Diabetes (blood glucose ≧300 mg/dl), day post STZ administration” value [1, 4] of the same sequence?
A: Its value is 4 days.

Q: And the “rate of disease progression (slope of the graph) versus untreated STZ group” value [1, 4]?
A: Its value is “essentially similar”.

Q: What about the “time to establish Diabetes in 100% of animals” value [1, 4] of the same sequence?
A: The value was 15 days.

Q: What about the “mortality / survival during the course of the study” value [1] of the same sequence?
A: The value was “increases survival”.

Q: And the “mortality / survival during the course of the study” value ([1]; listed as D3)?
A: The value was “no mortality was observed”.

Q: What about the “animals classified as diabetic by day 36” value [1, 5] of the same sequence?
A: Its value is 70%.

Q: And the “deaths from diabetic complications or toxic events related to peptide or STZ treatment” value [1, 5]?
A: The value was “No animals succumbed to diabetic complications or experienced any toxic events”.

Q: And the “delay of first signs of diabetes versus untreated animals” value [1, 5]?
A: The value was “four”.

Q: And the “rate of disease progression (slope of the graph)” value [1, 5]?
A: Its value is “much less pronounced”.

Q: What about the “mean blood glucose levels, D3 treated versus untreated STZ-induced animals” value ([1]; experiment 2, high carbohydrate diet (~50% sucrose), older stock vial of STZ, 36 days, FIG. 16) of the same sequence?
A: The value was “higher than those observed in diabetic animals treated with D3 peptide; also recorded: marked reduction”.

Q: What about the “day on which significant differences (p≦0.05) in mean blood glucose versus untreated diabetic animals were first observed” value ([1]; experiment 2, high carbohydrate diet, D3 peptide every 3 days) of the same sequence?
A: Its value is 10 days.

Q: What about the “inhibition of kinases of the panel” value [2] of the same sequence?
A: The value was “specific inhibition activities to 7 kinases”.

Q: And the “inhibition of kinases of the panel (confirmation)” value [3]?
A: Its value is “specific inhibition activity on 4 out of 7 kinases”.

Q: And the “% Inhibition mean” value (kinases)?
A: Its value is 99.79%.
